The NIST ThermoML archive (doi:10.1016/j.fluid.2012.10.024)

Assay: xn = mol fraction of the nth substance listed
Settings: 101 kPa, Liquid, Vibrating tube method

OCc1ccccn1 [α-picolyl alcohol] + O
mass density [kg/m3]
Settings | 293.15 K | 298.15 K | 303.15 K | 308.15 K | 313.15 K | 318.15 K
x1 = 0.05 | 1033.4 | 1031.7 | 1029.2 | 1027.6 | 1024.4 | 1021.6
x1 = 0.15 | 1077.3 | 1074.4 | 1071 | 1067.6 | 1064.5 | 1061.1
x1 = 0.2 | 1088.5 | 1085 | 1080.9 | 1076.8 | 1073.1 | 1069.3
x1 = 0.25 | 1098.1 | 1094 | 1089.6 | 1085.5 | 1081.6 | 1077.8
x1 = 0.3 | 1106.3 | 1102.9 | 1098.9 | 1095.1 | 1091.5 | 1087.9
x1 = 0.35 | 1112 | 1107.9 | 1103.4 | 1099.3 | 1095.4 | 1091.4
x1 = 0.4 | 1116 | 1111.7 | 1106.7 | 1102.3 | 1098.2 | 1094.5
x1 = 0.45 | 1119.8 | 1116.2 | 1111.9 | 1107.4 | 1103.6 | 1099.8
x1 = 0.5 | 1122.4 | 1118.9 | 1114.7 | 1110.8 | 1107 | 1103.2
x1 = 0.55 | 1124.4 | 1120.7 | 1116.3 | 1112.2 | 1108.3 | 1104.5
x1 = 0.6 | 1125.7 | 1122.1 | 1117.9 | 1113.9 | 1110 | 1106.3
x1 = 0.65 | 1127.5 | 1123.9 | 1119.8 | 1115.9 | 1112.1 | 1108.4
x1 = 0.7 | 1128.4 | 1124.8 | 1120.7 | 1116.9 | 1113.1 | 1109.5
x1 = 0.75 | 1129.3 | 1125.8 | 1121.7 | 1117.7 | 1114.1 | 1110.4
x1 = 0.8 | 1130.2 | 1126.7 | 1122.6 | 1118.7 | 1115 | 1111.2
x1 = 0.9 | 1131.5 | 1127.9 | 1123.9 | 1119.8 | 1116.1 | 1112.4
x1 = 0.95 | 1131.9 | 1128.3 | 1124.3 | 1120.3 | 1116.6 | 1112.9
x1 = 1 | 1132.3 | 1128.8 | 1124.7 | 1120.7 | 1116.9 | 1113.3

OCc1cccnc1 [β-picolyl alcohol] + O
mass density [kg/m3]
Settings | 293.15 K | 298.15 K | 303.15 K | 308.15 K | 313.15 K | 318.15 K
x1 = 0.05 | 1032.8 | 1031.1 | 1028.7 | 1026.3 | 1024.1 | 1021.8
x1 = 0.1 | 1056.5 | 1054 | 1051.1 | 1048.2 | 1045.5 | 1042.8
x1 = 0.15 | 1074.5 | 1071.9 | 1068.7 | 1065.5 | 1062.5 | 1059.5
x1 = 0.2 | 1089.7 | 1086.6 | 1083.2 | 1079.8 | 1076.6 | 1073.3
x1 = 0.25 | 1098 | 1095 | 1091.4 | 1088 | 1084.7 | 1081.4
x1 = 0.3 | 1106.6 | 1103.4 | 1099.7 | 1096.2 | 1092.8 | 1089.5
x1 = 0.35 | 1111.4 | 1108.1 | 1104.4 | 1100.8 | 1097.4 | 1094
x1 = 0.4 | 1117 | 1113.7 | 1109.9 | 1106.3 | 1103 | 1099.4
x1 = 0.45 | 1120.5 | 1117.2 | 1113.5 | 1109.7 | 1106.4 | 1102.9
x1 = 0.5 | 1123.5 | 1120.3 | 1116.5 | 1112.8 | 1109.4 | 1106
x1 = 0.55 | 1125.9 | 1122.4 | 1118.6 | 1114.9 | 1111.6 | 1108.2
x1 = 0.6 | 1128 | 1124.7 | 1120.8 | 1117.3 | 1113.8 | 1110.4
x1 = 0.65 | 1129.7 | 1126.4 | 1122.5 | 1118.9 | 1115.5 | 1112.1
x1 = 0.7 | 1131.1 | 1127.8 | 1123.9 | 1120.3 | 1116.9 | 1113.5
x1 = 0.75 | 1132.3 | 1129 | 1125.2 | 1121.6 | 1118.1 | 1114.7
x1 = 0.8 | 1133.5 | 1130.1 | 1126.3 | 1122.7 | 1119.3 | 1115.9
x1 = 0.85 | 1134.5 | 1131.2 | 1127.4 | 1123.7 | 1120.3 | 1116.9
x1 = 0.9 | 1135.2 | 1131.8 | 1128.1 | 1124.5 | 1121.1 | 1117.7
x1 = 0.95 | 1136.1 | 1132.7 | 1128.9 | 1125.3 | 1122 | 1118.6
x1 = 1 | 1136.8 | 1133.5 | 1129.6 | 1125.9 | 1122.6 | 1119.3
